# Assays:
# Test in all cases: Kinase Profiling (KINOMEscan)
# Format in all cases: binding
# [1] = molecular target: 456 kinases (of these 395 non-mutant kinases) (Homo sapiens, UniProt P54646); details: AMPK-alpha2; 10 μM
# [2] = molecular target: 456 kinases (of these 395 non-mutant kinases) (Homo sapiens, UniProt P24941); details: CDK2; 10 μM
# [3] = molecular target: 456 kinases (of these 395 non-mutant kinases) (Homo sapiens, UniProt O15146); details: MUSK; 10 μM
# [4] = molecular target: 456 kinases (of these 395 non-mutant kinases) (Homo sapiens, UniProt Q9Y4K4); details: MAP4K5; 10 μM
# [5] = molecular target: 456 kinases (of these 395 non-mutant kinases) (Homo sapiens, UniProt P08069); details: IGF1R; 10 μM
# [6] = molecular target: 456 kinases (of these 395 non-mutant kinases) (Homo sapiens, UniProt O60674); details: JAK2(JH1domain-catalytic); 10 μM
# [7] = molecular target: 456 kinases (of these 395 non-mutant kinases) (Homo sapiens, UniProt Q16832); details: DDR2; 10 μM
# [8] = molecular target: 456 kinases (of these 395 non-mutant kinases) (Homo sapiens, UniProt Q8NEV4); details: MYO3A; 10 μM
# [9] = molecular target: 456 kinases (of these 395 non-mutant kinases) (Homo sapiens, UniProt P00533, G719C); details: EGFR(G719C); 10 μM
# [10] = molecular target: 456 kinases (of these 395 non-mutant kinases) (Homo sapiens, UniProt Q9UF33); details: EPHA6; 10 μM
# [11] = molecular target: 456 kinases (of these 395 non-mutant kinases) (Homo sapiens, UniProt P10721, D816H); details: KIT(D816H); 10 μM
# [12] = molecular target: 456 kinases (of these 395 non-mutant kinases) (Homo sapiens, UniProt Q86UE8); details: TLK2; 10 μM
# [13] = molecular target: 456 kinases (of these 395 non-mutant kinases) (Homo sapiens, UniProt O15264); details: p38-delta; 10 μM
# [14] = molecular target: 456 kinases (of these 395 non-mutant kinases) (Homo sapiens, UniProt P42685); details: FRK; 10 μM
# [15] = molecular target: 456 kinases (of these 395 non-mutant kinases) (Homo sapiens, UniProt Q16584); details: MLK3; 10 μM
# [16] = molecular target: 456 kinases (of these 395 non-mutant kinases) (Homo sapiens, UniProt P19525); details: PRKR; 10 μM
# [17] = molecular target: 456 kinases (of these 395 non-mutant kinases) (Homo sapiens, UniProt Q9Y6E0); details: MST3; 10 μM
# [18] = molecular target: 456 kinases (of these 395 non-mutant kinases) (Homo sapiens, UniProt P35916); details: FLT4; 10 μM
# [19] = molecular target: 456 kinases (of these 395 non-mutant kinases) (Homo sapiens, UniProt O96017); details: CHEK2; 10 μM
# [20] = molecular target: 456 kinases (of these 395 non-mutant kinases) (Homo sapiens, UniProt P51956); details: NEK3; 10 μM
# [21] = molecular target: 456 kinases (of these 395 non-mutant kinases) (Homo sapiens, UniProt Q16513); details: PKN2; 10 μM
# [22] = molecular target: 456 kinases (of these 395 non-mutant kinases) (Homo sapiens, UniProt P53778); details: p38-gamma; 10 μM
# [23] = molecular target: 456 kinases (of these 395 non-mutant kinases) (Homo sapiens, UniProt Q9UEE5); details: DRAK1; 10 μM
# [24] = molecular target: 456 kinases (of these 395 non-mutant kinases) (Homo sapiens, UniProt P54760); details: EPHB4; 10 μM
# [25] = molecular target: 456 kinases (of these 395 non-mutant kinases) (Homo sapiens, UniProt Q8TBX8); details: PIP5K2C; 10 μM
# [26] = molecular target: 456 kinases (of these 395 non-mutant kinases) (Homo sapiens, UniProt O75914); details: PAK3; 10 μM
# [27] = molecular target: 456 kinases (of these 395 non-mutant kinases) (Homo sapiens, UniProt O43353); details: RIPK2; 10 μM
# [28] = molecular target: 456 kinases (of these 395 non-mutant kinases) (Homo sapiens, UniProt O75716); details: STK16; 10 μM
# [29] = molecular target: 456 kinases (of these 395 non-mutant kinases) (Homo sapiens, UniProt Q13043); details: MST1; 10 μM
# [30] = molecular target: 456 kinases (of these 395 non-mutant kinases) (Homo sapiens, UniProt P43403); details: ZAP70; 10 μM
# [31] = molecular target: 456 kinases (of these 395 non-mutant kinases) (Homo sapiens, UniProt Q06187); details: BTK; 10 μM
# [32] = molecular target: 456 kinases (of these 395 non-mutant kinases) (Homo sapiens, UniProt Q9HBH9); details: MKNK2; 10 μM
# 456 kinases (of these 395 non-mutant kinases) (Homo sapiens, UniProt Q16832), sequence (Q16832 22-855 limits assumed, change not shown): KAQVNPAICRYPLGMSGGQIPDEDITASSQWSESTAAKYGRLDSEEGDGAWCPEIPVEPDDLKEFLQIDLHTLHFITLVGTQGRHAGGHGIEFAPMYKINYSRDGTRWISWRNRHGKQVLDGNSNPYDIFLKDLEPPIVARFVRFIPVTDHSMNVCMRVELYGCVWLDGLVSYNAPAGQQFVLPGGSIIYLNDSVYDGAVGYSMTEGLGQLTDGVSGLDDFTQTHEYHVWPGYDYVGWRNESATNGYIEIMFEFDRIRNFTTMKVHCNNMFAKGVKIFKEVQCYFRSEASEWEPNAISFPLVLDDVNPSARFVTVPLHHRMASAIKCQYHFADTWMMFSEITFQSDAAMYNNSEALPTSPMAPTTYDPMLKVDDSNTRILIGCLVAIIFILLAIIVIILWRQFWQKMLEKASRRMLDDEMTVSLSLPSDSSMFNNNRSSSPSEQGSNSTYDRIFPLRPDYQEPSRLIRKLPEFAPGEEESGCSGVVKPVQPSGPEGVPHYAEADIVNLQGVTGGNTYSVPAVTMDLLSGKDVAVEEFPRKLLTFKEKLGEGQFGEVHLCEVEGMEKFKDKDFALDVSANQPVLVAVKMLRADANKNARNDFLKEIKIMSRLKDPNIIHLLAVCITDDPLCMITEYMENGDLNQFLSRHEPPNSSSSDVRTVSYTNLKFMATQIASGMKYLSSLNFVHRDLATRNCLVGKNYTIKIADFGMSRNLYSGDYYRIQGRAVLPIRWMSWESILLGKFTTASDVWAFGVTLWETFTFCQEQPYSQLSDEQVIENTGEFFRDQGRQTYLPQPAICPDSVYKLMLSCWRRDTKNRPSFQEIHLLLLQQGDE
# 456 kinases (of these 395 non-mutant kinases) (Homo sapiens, UniProt P19525), sequence (P19525 2-551 limits assumed, change not shown): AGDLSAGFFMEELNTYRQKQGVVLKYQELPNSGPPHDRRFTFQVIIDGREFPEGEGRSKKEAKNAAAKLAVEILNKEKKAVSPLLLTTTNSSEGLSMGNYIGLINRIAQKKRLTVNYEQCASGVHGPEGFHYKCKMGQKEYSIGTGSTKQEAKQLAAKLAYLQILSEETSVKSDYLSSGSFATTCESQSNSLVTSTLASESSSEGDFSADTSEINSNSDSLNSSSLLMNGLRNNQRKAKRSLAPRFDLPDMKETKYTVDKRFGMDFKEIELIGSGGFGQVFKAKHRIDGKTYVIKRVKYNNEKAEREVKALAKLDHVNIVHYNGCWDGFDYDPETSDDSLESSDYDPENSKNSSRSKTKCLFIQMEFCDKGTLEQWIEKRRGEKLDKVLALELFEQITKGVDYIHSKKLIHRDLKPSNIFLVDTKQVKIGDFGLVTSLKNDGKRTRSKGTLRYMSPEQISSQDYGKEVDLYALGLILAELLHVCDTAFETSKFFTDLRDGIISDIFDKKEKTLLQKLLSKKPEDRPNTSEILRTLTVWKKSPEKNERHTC
# 456 kinases (of these 395 non-mutant kinases) (Homo sapiens, UniProt Q9UF33), sequence (Q9UF33 23-1036 limits assumed, stated change not applied): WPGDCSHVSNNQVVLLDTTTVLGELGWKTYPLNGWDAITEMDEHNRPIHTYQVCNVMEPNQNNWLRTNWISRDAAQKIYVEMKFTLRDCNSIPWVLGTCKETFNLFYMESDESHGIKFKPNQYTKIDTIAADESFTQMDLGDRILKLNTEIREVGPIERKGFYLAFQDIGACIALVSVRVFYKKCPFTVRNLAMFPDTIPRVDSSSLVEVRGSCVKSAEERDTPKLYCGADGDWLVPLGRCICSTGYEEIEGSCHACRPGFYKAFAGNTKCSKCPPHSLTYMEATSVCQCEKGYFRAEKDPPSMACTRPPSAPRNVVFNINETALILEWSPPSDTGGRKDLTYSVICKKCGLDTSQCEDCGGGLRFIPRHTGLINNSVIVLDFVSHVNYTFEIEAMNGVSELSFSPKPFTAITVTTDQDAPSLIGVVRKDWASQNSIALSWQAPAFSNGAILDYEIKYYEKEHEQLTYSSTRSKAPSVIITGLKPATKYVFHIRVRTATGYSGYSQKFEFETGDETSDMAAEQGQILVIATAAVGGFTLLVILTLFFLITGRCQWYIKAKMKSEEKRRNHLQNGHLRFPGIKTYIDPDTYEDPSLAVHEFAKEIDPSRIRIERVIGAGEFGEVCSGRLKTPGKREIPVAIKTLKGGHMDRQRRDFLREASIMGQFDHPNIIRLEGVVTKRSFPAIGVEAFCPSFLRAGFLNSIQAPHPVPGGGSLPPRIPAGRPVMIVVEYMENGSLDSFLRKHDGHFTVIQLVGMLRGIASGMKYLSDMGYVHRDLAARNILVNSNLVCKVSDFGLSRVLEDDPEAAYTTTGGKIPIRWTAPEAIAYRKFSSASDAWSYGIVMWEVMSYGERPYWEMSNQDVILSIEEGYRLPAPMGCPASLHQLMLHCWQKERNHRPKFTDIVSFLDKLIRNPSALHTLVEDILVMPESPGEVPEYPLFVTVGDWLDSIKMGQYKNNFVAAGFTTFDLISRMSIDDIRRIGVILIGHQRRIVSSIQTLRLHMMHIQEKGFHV
# 456 kinases (of these 395 non-mutant kinases) (Homo sapiens, UniProt O75716), sequence (O75716 2-305 limits assumed, change not shown): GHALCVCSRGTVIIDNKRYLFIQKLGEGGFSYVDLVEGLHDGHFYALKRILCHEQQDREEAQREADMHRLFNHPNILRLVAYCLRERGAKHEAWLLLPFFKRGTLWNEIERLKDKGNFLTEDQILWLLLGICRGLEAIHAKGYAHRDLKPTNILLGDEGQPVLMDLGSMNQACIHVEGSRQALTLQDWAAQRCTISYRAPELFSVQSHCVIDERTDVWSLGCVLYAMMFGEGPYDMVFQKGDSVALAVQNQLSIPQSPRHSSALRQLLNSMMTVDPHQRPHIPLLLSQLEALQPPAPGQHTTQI
# 456 kinases (of these 395 non-mutant kinases) (Homo sapiens, UniProt Q8TBX8), sequence (Q8TBX8 2-421 limits assumed, change not shown): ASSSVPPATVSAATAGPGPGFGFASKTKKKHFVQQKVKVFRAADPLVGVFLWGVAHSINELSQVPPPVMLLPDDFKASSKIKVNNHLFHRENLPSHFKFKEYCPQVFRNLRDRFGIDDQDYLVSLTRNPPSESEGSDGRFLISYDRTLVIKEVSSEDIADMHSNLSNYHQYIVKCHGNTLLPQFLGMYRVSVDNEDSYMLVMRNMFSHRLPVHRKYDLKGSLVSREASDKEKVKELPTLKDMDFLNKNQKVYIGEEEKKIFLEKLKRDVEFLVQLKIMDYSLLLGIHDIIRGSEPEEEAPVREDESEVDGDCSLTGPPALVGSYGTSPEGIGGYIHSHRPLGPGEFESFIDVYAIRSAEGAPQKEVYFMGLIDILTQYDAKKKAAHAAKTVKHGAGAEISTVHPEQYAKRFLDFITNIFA
# 456 kinases (of these 395 non-mutant kinases) (Homo sapiens, UniProt Q06187), sequence (Q06187 2-659 limits assumed, change not shown): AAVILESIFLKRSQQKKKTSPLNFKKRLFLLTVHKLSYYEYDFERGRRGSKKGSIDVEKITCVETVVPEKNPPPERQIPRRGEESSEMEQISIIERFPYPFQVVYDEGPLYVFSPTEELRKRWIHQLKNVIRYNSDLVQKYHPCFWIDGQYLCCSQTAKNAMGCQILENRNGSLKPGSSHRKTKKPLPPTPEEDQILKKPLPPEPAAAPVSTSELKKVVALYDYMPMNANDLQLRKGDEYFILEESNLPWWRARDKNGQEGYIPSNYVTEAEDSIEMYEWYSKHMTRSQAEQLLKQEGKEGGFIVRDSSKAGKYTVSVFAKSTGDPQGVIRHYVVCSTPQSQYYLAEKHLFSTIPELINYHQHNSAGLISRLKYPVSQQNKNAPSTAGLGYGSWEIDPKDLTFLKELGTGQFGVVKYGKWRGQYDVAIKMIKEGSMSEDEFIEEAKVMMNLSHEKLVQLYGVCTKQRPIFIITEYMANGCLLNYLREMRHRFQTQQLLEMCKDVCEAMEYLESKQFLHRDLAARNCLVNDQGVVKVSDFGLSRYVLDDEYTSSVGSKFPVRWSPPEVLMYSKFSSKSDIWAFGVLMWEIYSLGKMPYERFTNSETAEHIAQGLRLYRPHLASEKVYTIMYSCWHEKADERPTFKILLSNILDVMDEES
# 456 kinases (of these 395 non-mutant kinases) (Homo sapiens, UniProt O15146), sequence (O15146 24-869 limits assumed, change not shown): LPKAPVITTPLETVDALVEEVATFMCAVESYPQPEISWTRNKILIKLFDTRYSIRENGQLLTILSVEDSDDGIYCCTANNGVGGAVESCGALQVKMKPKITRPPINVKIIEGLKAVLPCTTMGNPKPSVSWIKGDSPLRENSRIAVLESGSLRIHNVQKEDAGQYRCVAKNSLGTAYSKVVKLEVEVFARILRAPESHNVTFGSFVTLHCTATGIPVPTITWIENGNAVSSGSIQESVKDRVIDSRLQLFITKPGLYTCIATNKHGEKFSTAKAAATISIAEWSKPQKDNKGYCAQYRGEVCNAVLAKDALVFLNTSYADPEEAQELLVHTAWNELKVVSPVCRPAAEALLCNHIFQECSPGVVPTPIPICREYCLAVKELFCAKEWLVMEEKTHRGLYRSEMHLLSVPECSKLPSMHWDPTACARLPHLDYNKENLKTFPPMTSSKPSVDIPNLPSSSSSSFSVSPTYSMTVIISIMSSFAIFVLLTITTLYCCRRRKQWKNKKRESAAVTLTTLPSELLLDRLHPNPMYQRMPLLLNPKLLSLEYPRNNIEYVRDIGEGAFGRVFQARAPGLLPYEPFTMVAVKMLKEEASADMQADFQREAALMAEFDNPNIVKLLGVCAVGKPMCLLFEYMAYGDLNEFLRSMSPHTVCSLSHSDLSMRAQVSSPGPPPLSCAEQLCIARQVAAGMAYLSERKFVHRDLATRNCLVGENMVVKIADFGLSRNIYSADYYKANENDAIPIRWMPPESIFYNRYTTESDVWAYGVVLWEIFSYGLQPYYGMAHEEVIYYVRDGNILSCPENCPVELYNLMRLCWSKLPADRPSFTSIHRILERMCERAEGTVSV
smiles,measurement,setting,value
"CCc1ccccc1NC(=O)c1c(C)nsc1Nc1cnc2cc(F)ccc2n1 [Example 20, N-(2-Ethylphenyl)-5-[(6-fluoroquinoxalin-2-yl)amino]-3-methyl-1,2-thiazole-4-carboxamide]",% Ctrl @ 10 μM,[1],100 % Ctrl
same,% Ctrl @ 10 μM,[2],100 % Ctrl
same,% Ctrl @ 10 μM,[3],91 % Ctrl
same,% Ctrl @ 10 μM,[4],89 % Ctrl
same,% Ctrl @ 10 μM,[5],100 % Ctrl
same,% Ctrl @ 10 μM,[6],100 % Ctrl
same,% Ctrl @ 10 μM,[7],100 % Ctrl
same,% Ctrl @ 10 μM,[8],86 % Ctrl
same,% Ctrl @ 10 μM,[9],95 % Ctrl
same,% Ctrl @ 10 μM,[10],85 % Ctrl
same,% Ctrl @ 10 μM,[11],97 % Ctrl
same,% Ctrl @ 10 μM,[12],94 % Ctrl
same,% Ctrl @ 10 μM,[13],100 % Ctrl
same,% Ctrl @ 10 μM,[14],66 % Ctrl
same,% Ctrl @ 10 μM,[15],90 % Ctrl
same,% Ctrl @ 10 μM,[16],100 % Ctrl
same,% Ctrl @ 10 μM,[17],75 % Ctrl
same,% Ctrl @ 10 μM,[18],87 % Ctrl
same,% Ctrl @ 10 μM,[19],100 % Ctrl
same,% Ctrl @ 10 μM,[20],97 % Ctrl
same,% Ctrl @ 10 μM,[21],100 % Ctrl
same,% Ctrl @ 10 μM,[22],58 % Ctrl
same,% Ctrl @ 10 μM,[23],100 % Ctrl
same,% Ctrl @ 10 μM,[24],96 % Ctrl
same,% Ctrl @ 10 μM,[25],100 % Ctrl
same,% Ctrl @ 10 μM,[26],100 % Ctrl
same,% Ctrl @ 10 μM,[27],66 % Ctrl
same,% Ctrl @ 10 μM,[28],100 % Ctrl
same,% Ctrl @ 10 μM,[29],79 % Ctrl
same,% Ctrl @ 10 μM,[30],88 % Ctrl
same,% Ctrl @ 10 μM,[31],98 % Ctrl
same,% Ctrl @ 10 μM,[32],100 % Ctrl

# Source: patent US9682995B2, “Amino-substituted isothiazoles” (BAYER PHARMA AKTIENGESELLSCHAFT, priority 2013, dated 2017)
